Measured values as given in patent US10975042B2, “Method for purifying an amino acid-n-carboxy anhydride” (SHIN-ETSU CHEMICAL CO., LTD., priority 2018, dated 2021).

Assay: Long-term storage stability of NCA, purity by DSC
Assay type: physicochemical
Details: DSC
Protocol: In Examples and Comparative Examples, the purity of each NCA was measured using differential scanning calorimeter (DSC) in accordance with 2.52 thermal analysis method of The Japanese Pharmacopoeia, 17th ed. (2.4.4. measurement of purity). The measurement was performed using Thermo plus EVO DSC8230 (manufactured by Rigalu Corporation) as a measurement apparatus with the sample amount of 1 mg at a temperature increasing rate of 1° C./minute. Incidentally, it is conceived that precise measurement cannot be guaranteed unless the purity is 98 mol % or more according to 2.52 thermal analysis method of The Japanese Pharmacopoeia, 17th ed. (2.4.4. measurement of purity).
Each purified NCA was evaluated for long-term storage stability. […] Regarding the conditions of −20±5° C., the results of purity measured by DSC at after a half year, after 1 year, and after 2 years are shown. Regarding the conditions of 0 to 5° C., the results of purity measured by DSC at after 1 month, 2 months, and a half year are shown. As a comparison, commercially available NCA shown by the general formula (A) (manufactured by Isochem), the purity of which is more than 98 mol % based on the DSC measurement, was evaluated and shown as Comparison 1. This NCA has a residual chlorine concentration of 0.030 mass % and belongs to a lot with extremely low residual chlorine concentration in commercially available NCAs.

[1] = initial value of storage test at 0 to 5° C.
[2] = initial value of storage test at −20±5° C.

SMILES | Purity after purification [1] [mol %] | Purity after purification [2] [mol %] | Purity after 1 month from purification (storage at 0 to 5° C.) [mol %] | Purity after 2 months from purification (storage at 0 to 5° C.) [mol %] | Purity after a half year from purification (storage at 0 to 5° C.) [mol %] | Purity after 1 year from purification (storage at −20±5° C.) [mol %] | Purity after 2 years from purification (storage at −20±5° C.) [mol %] | Purity after a half year from purification (storage at −20±5° C.) [mol %]
O=C(CCC1NC(=O)OC1=O)OCc1ccccc1 (stereo not shown) [(B)] | 99.40 | 99.40 | 99.39 | 99.41 | 99.41 | 99.41 | 99.40 | 99.40
CC(=O)OCCCC1NC(=O)OC1=O (stereo not shown) [(C)] | 99.20 | 99.20 | 99.22 | 99.21 | 99.19 | 99.22 | 99.21 | 99.22
COCOCCCC1NC(=O)OC1=O (stereo not shown) [(D)] | 99.00 | 99.00 | 98.98 | 99.00 | 98.95 | 99.00 | 99.05 | 98.95
O=C1NC(CCCOCc2ccccc2)C(=O)O1 (stereo not shown) [(E)] | 98.90 | 98.90 | 98.90 | 98.88 | 98.86 | 98.88 | 98.89 | 98.89
CC(C)(C)OCCCC1NC(=O)OC1=O (stereo not shown) [(F)] | 99.10 | 99.10 | 99.12 | 99.10 | 99.10 | 99.12 | 99.12 | 99.12
O=C(CC1NC(=O)OC1=O)OCc1ccccc1 (stereo not shown) [(G)] | 99.25 | 99.25 | 99.24 | 99.25 | 99.26 | 99.26 | 99.25 | 99.25
CC(C)(C)OC(=O)CC1NC(=O)OC1=O (stereo not shown) [(H)] | 99.18 | 99.18 | 99.19 | 99.19 | 99.18 | 99.16 | 99.16 | 99.17
CC(C)(C)[Si](OCCC1NC(=O)OC1=O)(c1ccccc1)c1ccccc1 (stereo not shown) [(I)] | 99.35 | 99.35 | 99.35 | 99.36 | 99.36 | 99.36 | 99.36 | 99.35
O=C1CNC(=O)O1 [(J)] | 99.10 | 99.10 | 99.12 | 99.10 | 99.08 | 99.12 | 99.10 | 99.15
CN1CC(=O)OC1=O [(K)] | 98.94 | 98.94 | 98.93 | 98.92 | 98.90 | 98.92 | 98.93 | 98.90
CC(C)(C)OC(=O)N1CC(=O)OC1=O [(L)] | 99.05 | 99.05 | 99.07 | 99.05 | 99.07 | 99.04 | 99.05 | 99.02
CC(=O)N1CC(=O)OC1=O [(M)] | 99.22 | 99.22 | 99.23 | 99.22 | 99.24 | 99.23 | 99.23 | 99.23
O=C1NC(Cc2ccccc2)C(=O)O1 (stereo not shown) [(N)] | 98.88 | 98.88 | 98.88 | 98.86 | 98.86 | 98.86 | 98.85 | 98.85
CC(C)C1NC(=O)OC1=O (stereo not shown) [(O)] | 98.80 | 98.80 | 98.77 | 98.75 | 98.73 | 98.79 | 98.79 | 98.77
CC(C)CC1NC(=O)OC1=O (stereo not shown) [(P)] | 98.91 | 98.91 | 98.93 | 98.94 | 98.94 | 98.90 | 98.91 | 98.92
O=C1CCNC(=O)O1 [(Q)] | 99.32 | 99.32 | 99.31 | 99.31 | 99.32 | 99.33 | 99.33 | 99.33
O=C1CCCNC(=O)O1 [(R)] | 99.03 | 99.03 | 99.05 | 99.04 | 99.03 | 99.06 | 99.05 | 99.07
